9 compounds from patent US5514694A, “Peptidyl ketoamides” (Georgia Tech Research Corp, priority 1993, dated 1996) can be followed below.

One may read the IC50 as the concentration at which inhibition is half-maximal. The low end stands for higher potency, the high end for lower potency. For orientation: Ki means the dissociation constant of the complex between target and ligand, obtained from inhibition or displacement.

Test [1] concerns the target T1, human leukocyte elastase (HLE) (Homo sapiens, UniProt P08246).
T1 sequence (P08246 30-267): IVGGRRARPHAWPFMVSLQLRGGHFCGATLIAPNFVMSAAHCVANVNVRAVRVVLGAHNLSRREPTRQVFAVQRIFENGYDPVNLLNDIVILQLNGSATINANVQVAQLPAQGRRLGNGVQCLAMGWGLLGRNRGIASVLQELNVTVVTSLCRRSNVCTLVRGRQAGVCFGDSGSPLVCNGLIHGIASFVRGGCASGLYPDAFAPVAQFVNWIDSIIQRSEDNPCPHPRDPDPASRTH
The test can be described thus: HLE inhibition, MeO-Suc-Ala-Ala-Pro-Val-NA hydrolysis. In kind it is biochemical. The note with it: for IC50: Table 4, Z-Leu--AA--CONH-R; for Ki: Table 4, in brackets under the IC50. As for the experimental part: (§1) Peptide α-ketoamides were assayed as reversible enzyme inhibitors. Various concentrations of inhibitors in Me2 SO were added to the assay mixture which contained buffer and substrate. The reaction was started by the addition of the enzyme and the hydrolysis rates were followed spectrophotometrically or fluorimetrically.
(§2) A 0.1M Hepes, 0.5M NaCl, pH 7.5 buffer was utilized for human leukocyte elastase (HLE), porcine pancreatic elastase (PPE), chymotrypsin and cathepsin G. A 0.1 Hepes, 0.01 M CaCl2, pH 7.5 buffer was utilized for trypsin, plasmin, and coagulation enzymes. A 50 mM Tris.HCl, 2 mM EDTA, 5 mM cysteine, pH 7.5 was used as a buffer for papain. A 88 mM KH2 PO4, 12 mM Na2 HPO4, 1.33 mM EDTA, 2.7 mM cysteine, pH 6.0 solution was used as a buffer for cathepsin B. A 20 mM Hepes, 10 mM CaCl2, 10 mM mercatoethanol, pH 7.2 buffer was utilized for calpain I and calpain II.
(§3) HLE and PPE were assayed with MeO-Suc-Ala-Ala-Pro-Val-NA and Suc-Ala-Ala-Ala-NA, respectively Nakajima et al., J. Biol. Chem. 254, 4027-4032 (1979); incorporated herein by reference!. Human leukocyte cathepsin G and chymotrypsin Aα were assayed with Suc-Val-Pro-Phe-NA Tanaka et al., Biochemistry 24, 2040-2047 (1985); incorporated herein by reference!. The hydrolysis of peptide 4-nitroanilides was measured at 410 nm ε410 =8800 M^-1 cm^-1; Erlanger et al., Arch. Biochem. Biophys. 95, pp 271-278 (1961); incorporated herein by reference!. Trypsin, thrombin, human plasma kallikrein, porcine pancreatic kallikrein, human factor XIa, and human plasmin were assayed with Z-Arg-SBzl or Z-Gly-Arg-SBu-i McRae et al., Biochemistry 20, 7196-7206 (1981); incorporated herein by reference!. All peptide thioester hydrolysis rates were measured with assay mixtures containing 4,4'-dithiodipyridine ε324 =19800 M^-1 cm^-1; Grasetti & Murray, Arch. Biochem. Biophys. 119, 41-49 (1967); incorporated herein by reference!.

For test [2], the target named is T2, Human leukocyte cathepsin G (Homo sapiens, UniProt P08311).
T2 sequence (P08311 21-255): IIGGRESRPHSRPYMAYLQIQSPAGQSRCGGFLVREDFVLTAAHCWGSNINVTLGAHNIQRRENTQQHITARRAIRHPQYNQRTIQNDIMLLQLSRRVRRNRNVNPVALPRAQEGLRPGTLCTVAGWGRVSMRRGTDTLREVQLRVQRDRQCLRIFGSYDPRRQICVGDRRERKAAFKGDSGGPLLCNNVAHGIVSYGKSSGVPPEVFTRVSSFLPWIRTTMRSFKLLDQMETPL
As to the kind of experiment: Cathepsin G inhibition, Suc-Val-Pro-Phe-NA hydrolysis. It is filed as biochemical. The conditions noted are these: for IC50: Table 4, Z-Leu--AA--CONH-R; for Ki: Table 4, in brackets under the IC50, read-out: KI Cat G. As for the experimental part:
as §1, §2, §3

As for `CC(C)C[C@H](NC(=O)OCc1ccccc1)C(=O)N[C@@H](Cc1ccccc1)C(=O)C(=O)NCC(O)c1ccc(OCc2ccccc2)c(OCc2ccccc2)c1` (stereo partly drawn) [Z-Leu-Phe-CONH-C6 H3 (3,4-(OCH2 Ph)2), Z-Leu-Phe-CONH--CH2 CH(OH)C6 H3 (3,4-(OCH2 Ph)2)], the IC50 is 22 µM in test [1] and 66 µM in test [2].

`CC(C)CC(NC(=O)OCc1ccccc1)C(=O)NC(Cc1ccccc1)C(=O)C(=O)NCc1ccccc1` (stereo not drawn) [Z-Leu-Phe-CONH-CH2 Ph]: the IC50 in test [1] was found to be 40 µM; in test [2], 63 µM.

Take `CCNC(=O)C(=O)[C@H](Cc1ccccc1)NC(=O)[C@H](CC(C)C)NC(=O)OCc1ccccc1` [Z-Leu-Phe-CONH-Et, Z-Leu-Phe-CO--NH-Et]: the values for the IC50 in test [1] and in test [2] were 74 µM and 91 µM, respectively.

Regarding `CC(C)C[C@H](NC(=O)OCc1ccccc1)C(=O)N[C@@H](Cc1ccccc1)C(=O)C(N)=O` [Z-Leu-Phe-CONH-H], the values for the half-maximal inhibitory concentration (IC50) in test [1] and in test [2] were 100 µM and 80 µM, respectively.

For the compound `CC(C)CNC(=O)C(=O)C(Cc1ccccc1)NC(=O)C(CC(C)C)NC(=O)OCc1ccccc1` (stereo not drawn) [Z-Leu-Phe-CONH-i-Bu], the IC50 in test [1] amounted to 20 µM; in test [2], 45 µM. Besides, the Ki in test [1] worked out at 10 µM; in test [2], 21 µM.

In test [1], `CCCCNC(=O)C(=O)C(Cc1ccccc1)NC(=O)C(CC(C)C)NC(=O)OCc1ccccc1` (stereo not drawn) [Z-Leu-Phe-CONH-n-Bu] registered an IC50 of 16 µM and a Ki of 11 µM. Besides, in test [2], the IC50 turned out to be 68 µM and the Ki amounted to 4.9 µM.

`CCCNC(=O)C(=O)C(Cc1ccccc1)NC(=O)C(CC(C)C)NC(=O)OCc1ccccc1` (stereo not drawn) [Z-Leu-Phe-CONH-n-Pr]: the half-inhibitory concentration (IC50) in test [1] is 44 µM; in test [2], 65 µM.

For the compound `CCC(C)NC(=O)C(=O)C(Cc1ccccc1)NC(=O)C(CC(C)C)NC(=O)OCc1ccccc1` (stereo not drawn) [Z-Leu-Phe-CONH-sec-Bu], the IC50 in test [1] was 50 µM; in test [2] it was 128 µM.

In the case of “Z-Leu-Phe-CONH--CH2 CH(OH)C6 H4 (4-OPh) [Z-Leu-Phe-CONH-CH2 CH(OH)-C6 H4 (4-OPh)]”, the half-inhibitory concentration (IC50) in test [1] is 32 µM; in test [2] it was > 102 µM.
